# Laboratory results: US10947210B2 (priority 2015, dated 2021)
# Biological target: HCV RNA-dependent RNA polymerase (NS5B) (Hepatitis C virus genotype 1b (isolate BK) (HCV), UniProt P26663)
# Experiment: RNA-Dependent RNA HCV NS5B (polymerase) Assay and IC50 Determination
# Type: biochemical
# Conditions: purified HCV NS5B polymerase, polyA:U16 substrate, 32P-UTP incorporation; read-out: IC50
# Description: RNA-Dependent RNA HCV NS5B (polymerase) Assay and IC50 Determination.
# The reaction mixtures consisted of 50 mM Hepes-KOH, pH 7.5, 5 mM MgCl2, 5 mM DTT, 2% glycerol, 0.01% Triton® X-100, 0.5 uM polyA:U16 substrate, purified HCV RNA-dependent RNA polymerase, 10 μM UTP, and ^32P-UTP (Perkin Elmer). The reaction mixtures incubated at 30° C. for 60 minutes, and then filtered through Zeta probe membrane (BioRad). The filter was washed with 5×SSC (75 mM sodium citrate, pH 7 and 750 mM NaCl), and the radiolabeled RNA products were quantitated by microbeta (Perkin Elmer). For IC50 determination, different concentrations of inhibitors were added to the polymerase reaction mixtures, and incubated at 37° C. for 60 minutes. IC50 values were determined using GraFit (Erithaus software).
# Table 1 presents IC50 data obtained using the biochemical assay to test representative compounds. Data are presented as follows: “+++” means <0.1 μM; “++” means ≥0.1 μM but <1.0 μM; “+” means ≥1.0 μM.
# Sequence of HCV RNA-dependent RNA polymerase (NS5B) (P26663 2420-3010): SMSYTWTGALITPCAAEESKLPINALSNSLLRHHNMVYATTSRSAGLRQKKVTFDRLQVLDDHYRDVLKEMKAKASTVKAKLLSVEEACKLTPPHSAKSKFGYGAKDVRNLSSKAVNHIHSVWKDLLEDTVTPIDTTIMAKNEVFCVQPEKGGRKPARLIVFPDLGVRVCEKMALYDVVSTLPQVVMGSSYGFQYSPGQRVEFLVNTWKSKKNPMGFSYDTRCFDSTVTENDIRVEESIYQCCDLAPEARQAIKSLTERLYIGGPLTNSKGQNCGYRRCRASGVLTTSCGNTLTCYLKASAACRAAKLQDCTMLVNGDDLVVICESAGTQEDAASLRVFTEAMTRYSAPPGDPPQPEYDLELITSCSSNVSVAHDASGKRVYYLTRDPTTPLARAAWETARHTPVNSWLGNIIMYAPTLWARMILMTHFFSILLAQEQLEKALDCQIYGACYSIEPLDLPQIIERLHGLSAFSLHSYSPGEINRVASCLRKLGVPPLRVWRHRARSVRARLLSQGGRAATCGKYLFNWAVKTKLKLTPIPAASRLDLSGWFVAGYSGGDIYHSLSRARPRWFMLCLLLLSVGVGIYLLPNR
row,SMILES,IC50 [nM]
1,"CNC(=O)c1c(-c2ccc(F)cc2)oc2cc(N(CCOCCOCc3ccc(C(=O)OC)c([N+](=O)[O-])c3)S(C)(=O)=O)c(C3CC3)cc12 [Compound 29-7, 4-[2-(2-{[5-Cyclopropyl-2-(4-fluoro-phenyl)-3-methylcarbamoyl-benzofuran-6-yl]-methanesulfonyl-amino}-ethoxy)-ethoxymethyl]-2-nitro-benzoic Acid Methyl Ester]",100 to 1000
2,"CNC(=O)c1c(-c2ccc(F)cc2)oc2cc(N(CC(=O)NC3(C(=O)NCc4cccc(C(=O)C=C(O)C(=O)O)c4)CC3)S(C)(=O)=O)c(C3CC3)cc12 [Compound 09-14D, 4-[3-({[1-(2-{[5-Cyclopropyl-2-(4-fluoro-phenyl)-3-methylcarbamoyl-benzofuran-6-yl]-methanesulfonyl-amino}-acetylamino)-cyclopropanecarbonyl]-amino}-methyl)-phenyl]-2-hydroxy-4-oxo-but-2-enoic Acid]",> 1000
3,"CNC(=O)c1c(-c2ccc(F)cc2)oc2cc(N(CCOCCOCCOCCOCCOCCOCc3cccc(C(C)=O)c3)S(C)(=O)=O)c(C3CC3)cc12 [Compound 02-8E, 6-[(2-{2-[2-(2-{2-[2-(3-Acetyl-benzyloxy)-ethoxy]-ethoxy}-ethoxy)-ethoxy]-ethoxy}-ethyl)-methanesulfonyl-amino]-5-cyclopropyl-2-(4-fluoro-phenyl)-benzofuran-3-carboxylic Acid Methylamide]",> 1000
4,"CNC(=O)c1c(-c2ccc(F)cc2)oc2cc(N(CCOCCOCCOCc3cccc(C(=O)O)c3)S(C)(=O)=O)c(C3CC3)cc12 [Compound 06-7F, 3-{2-[2-(2-{[5-Cyclopropyl-2-(4-fluoro-phenyl)-3-methylcarbamoyl-benzofuran-6-yl]-methanesulfonyl-amino}-ethoxy)-ethoxy]-ethoxymethyl}-benzoic Acid]",< 100
5,"CNC(=O)c1c(-c2ccc(F)cc2)oc2cc(N(CCOCCOCCCCc3cccc(C(=O)CC(=O)C(=O)O)c3)S(C)(=O)=O)c(C3CC3)cc12 [Compound 30-12, 4-(3-{4-[2-(2-{[5-Cyclopropyl-2-(4-fluoro-phenyl)-3-methylcarbamoyl-benzofuran-6-yl]-methanesulfonyl-amino}-ethoxy)-ethoxy]-butyl}-phenyl)-2,4-dioxo-butyric acid]",> 1000
6,"CNC(=O)c1c(-c2ccc(F)cc2)oc2cc(N(CC(=O)N(C)CC(=O)NCc3cccc(C(=O)C=C(O)C(=O)O)c3)S(C)(=O)=O)c(C3CC3)cc12 [Compound 09-14B, 4-[3-({2-[(2-{[5-Cyclopropyl-2-(4-fluoro-phenyl)-3-methylcarbamoyl-benzofuran-6-yl]-methanesulfonyl-amino}-acetyl)-methyl-amino]-acetylamino}-methyl)-phenyl]-2-hydroxy-4-oxo-but-2-enoic acid]",> 1000
7,"CCOC(=O)C(OCCOCCOCCN(c1cc2oc(-c3ccc(F)cc3)c(C(=O)NC)c2cc1C1CC1)S(C)(=O)=O)c1ccccc1 (stereo not shown) [Compound 25-4, {2-[2-(2-{[5-Cyclopropyl-2-(4-fluoro-phenyl)-3-methylcarbamoyl-benzofuran-6-yl]-methanesulfonyl-amino}-ethoxy)-ethoxy]-ethoxy}-phenyl-acetic Acid Ethyl Ester]",> 1000
8,"CNC(=O)c1c(-c2ccc(F)cc2)oc2cc(N(CCCCCOCCCC(C)C(=O)O)S(C)(=O)=O)c(C3CC3)cc12 (stereo not shown) [Compound 28-8B, 5-(5-{[5-Cyclopropyl-2-(4-fluoro-phenyl)-3-methylcarbamoyl-benzofuran-6-yl]-methanesulfonyl-amino}-pentyloxy)-2-methyl-pentanoic Acid]",< 100
9,"CNC(=O)c1c(-c2ccc(F)cc2)oc2cc(N(CCCCCOCCCCC(=O)OC(C)(C)C)S(C)(=O)=O)c(C3CC3)cc12 [Compound 28-7A, 5-(5-{[5-Cyclopropyl-2-(4-fluoro-phenyl)-3-methylcarbamoyl-benzofuran-6-yl]-methanesulfonyl-amino}-pentyloxy)-pentanoic Acid Tert-butyl Ester]",> 1000
10,"CNC(=O)c1c(-c2ccc(F)cc2)oc2cc(N(CCOCCOCCOCCOCc3ccc(C(C)=O)cc3)S(C)(=O)=O)c(C3CC3)cc12 [Compound 02-8H, 6-{[2-(2-{2-[2-(4-Acetyl-benzyloxy)-ethoxy]-ethoxy}-ethoxy)-ethyl]-methanesulfonyl-amino}-5-cyclopropyl-2-(4-fluoro-phenyl)-benzofuran-3-carboxylic Acid Methylamide]",> 1000
11,"CNC(=O)c1c(-c2ccc(F)cc2)oc2cc(N(CCOCCOCCCc3cccc(C(=O)O)c3)S(C)(=O)=O)c(C3CC3)cc12 [Compound 12-7B, 3-{3-[2-(2-{[5-Cyclopropyl-2-(4-fluoro-phenyl)-3-methylcarbamoyl-benzofuran-6-yl]-methanesulfonyl-amino}-ethoxy)-ethoxy]-propyl}-benzoic Acid]",< 100
12,"CCOC(=O)c1ccc(OCCCCCCN(c2cc3oc(-c4ccc(F)cc4)c(C(=O)NC)c3cc2C2CC2)S(C)(=O)=O)cc1 [Compound 15-7, 4-(6-{[5-Cyclopropyl-2-(4-fluoro-phenyl)-3-methylcarbamoyl-benzofuran-6-yl]-methanesulfonyl-amino}-hexyloxy)-benzoic Acid Ethyl Ester]",100 to 1000
13,"CCOC(=O)c1ccc(COCCOCCN(c2cc3oc(-c4ccc(F)cc4)c(C(=O)NC)c3cc2C2CC2)S(C)(=O)=O)cc1 [Compound 06-8B1, 4-[2-(2-{[5-Cyclopropyl-2-(4-fluoro-phenyl)-3-methylcarbamoyl-benzofuran-6-yl]-methanesulfonyl-amino}-ethoxy)-ethoxymethyl]-benzoic Acid Ethyl Ester]",> 1000
14,"CNC(=O)c1c(-c2ccc(F)cc2)oc2cc(N(CCOCCOCc3ccc(C(=O)O)cc3C)S(C)(=O)=O)c(C3CC3)cc12 [Compound 18-10B, 4-[2-(2-{[5-Cyclopropyl-2-(4-fluoro-phenyl)-3-methylcarbamoyl-benzofuran-6-yl]-methanesulfonyl-amino}-ethoxy)-ethoxymethyl]-3-methyl-benzoic Acid]",< 100
15,"CNC(=O)c1c(-c2ccc(F)cc2)oc2cc(N(CCOCCOCCOCc3ccccc3C(=O)OC)S(C)(=O)=O)c(C3CC3)cc12 [Compound 06-6D, 2-{2-[2-(2-{[5-Cyclopropyl-2-(4-fluoro-phenyl)-3-methylcarbamoyl-benzofuran-6-yl]-methanesulfonyl-amino}-ethoxy)-ethoxy]-ethoxymethyl}-benzoic acid methyl ester]",100 to 1000
16,"CNC(=O)c1c(-c2ccc(F)cc2)oc2cc(N(CCNC(=O)CNC(=O)CCCC(=O)O)S(C)(=O)=O)c(C3CC3)cc12 [Compound 07-7, 4-{[(2-{[5-Cyclopropyl-2-(4-fluoro-phenyl)-3-methylcarbamoyl-benzofuran-6-yl]-methanesulfonyl-amino}-ethylcarbamoyl)-methyl]-carbamoyl}-butyric Acid]",> 1000
17,"CNC(=O)c1c(-c2ccc(F)cc2)oc2cc(N(CCOCCOCc3ccc(C(=O)OCc4ccccc4)cc3)S(C)(=O)=O)c(C3CC3)cc12 [Compound 06-8B7, 4-[2-(2-{[5-Cyclopropyl-2-(4-fluoro-phenyl)-3-methylcarbamoyl-benzofuran-6-yl]-methanesulfonyl-amino}-ethoxy)-ethoxymethyl]-benzoic Acid Benzyl Ester]",100 to 1000
18,"CNC(=O)c1c(-c2ccc(F)cc2)oc2cc(N(CCOCCCCCOC(C)C(=O)O)S(C)(=O)=O)c(C3CC3)cc12 (stereo not shown) [Compound 27-9B, 2-[5-(2-{[5-Cyclopropyl-2-(4-fluoro-phenyl)-3-methylcarbamoyl-benzofuran-6-yl]-methanesulfonyl-amino}-ethoxy)-pentyloxy]-propionic Acid]",100 to 1000
19,"CNC(=O)c1c(-c2ccc(F)cc2)oc2cc(N(CCOCCOCCc3ccccc3C(=O)OC)S(C)(=O)=O)c(C3CC3)cc12 [Compound 11-5A, 2-{2-[2-(2-{[5-Cyclopropyl-2-(4-fluoro-phenyl)-3-methylcarbamoyl-benzofuran-6-yl]-methanesulfonyl-amino}-ethoxy)-ethoxy]-ethyl}-benzoic Acid Methyl Ester]",100 to 1000
20,"CNC(=O)c1c(-c2ccc(F)cc2)oc2cc(N(CCOCCOCc3ccc(C(=O)OC)cc3C)S(C)(=O)=O)c(C3CC3)cc12 [Compound 18-9B, 4-[2-(2-{[5-Cyclopropyl-2-(4-fluoro-phenyl)-3-methylcarbamoyl-benzofuran-6-yl]-methanesulfonyl-amino}-ethoxy)-ethoxymethyl]-3-methyl-benzoic Acid Methyl Ester]",> 1000
21,"CNC(=O)c1c(-c2ccc(F)cc2)oc2cc(N(CC(=O)NCC(=O)NCCCCC(=O)O)S(C)(=O)=O)c(C3CC3)cc12 [Compound 10-4A, 5-[2-(2-{[5-Cyclopropyl-2-(4-fluoro-phenyl)-3-methylcarbamoyl-benzofuran-6-yl]-methanesulfonyl-amino}-acetylamino)-acetylamino]-pentanoic Acid]",> 1000
22,"CNC(=O)c1c(-c2ccc(F)cc2)oc2cc(N(CCOCCOCCOCCOCCOCCOCc3ccc(C(=O)/C=C(\O)C(=O)O)cc3)S(C)(=O)=O)c(C3CC3)cc12 [Compound 02-10J, 4-(4-{2-[2-(2-{2-[2-(2-{[5-Cyclopropyl-2-(4-fluoro-phenyl)-3-methylcarbamoyl-benzofuran-6-yl]-methanesulfonyl-amino}-ethoxy)-ethoxy]-ethoxy}-ethoxy)-ethoxy]-ethoxymethyl}-phenyl)-2-hydroxy-4-oxo-but-2-enoic Acid]",> 1000
